Assay results published in ChEMBL document CHEMBL1138109, “Semicarbazone-based inhibitors of cathepsin K, are they prodrugs for aldehyde inhibitors?” (Bioorg Med Chem Lett, 2006).
In brackets after ≈: the same amount, converted by molar mass.

Assays:
Cathepsin B = Cathepsin B (Homo sapiens, UniProt P07858); experiment: Inhibition of recombinant human cathepsin B in a fluorescence assay
Pro-cathepsin H = target: T1, Pro-cathepsin H (Homo sapiens, UniProt P09668); experiment: Inhibition of recombinant human cathepsin H in a fluorescence assay
T1 sequence (P09668 whole entry): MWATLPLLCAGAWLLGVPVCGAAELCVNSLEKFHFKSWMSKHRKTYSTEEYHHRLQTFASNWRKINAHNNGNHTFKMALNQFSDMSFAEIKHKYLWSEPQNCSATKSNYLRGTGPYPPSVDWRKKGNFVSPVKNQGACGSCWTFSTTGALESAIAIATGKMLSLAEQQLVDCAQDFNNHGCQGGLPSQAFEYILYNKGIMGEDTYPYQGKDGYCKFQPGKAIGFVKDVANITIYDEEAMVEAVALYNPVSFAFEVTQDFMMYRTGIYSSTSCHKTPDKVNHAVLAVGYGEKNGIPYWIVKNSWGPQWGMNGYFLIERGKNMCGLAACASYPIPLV

Procathepsin L = Procathepsin L (Homo sapiens, UniProt P07711); experiment: Inhibition of recombinant human cathepsin L in a fluorescence assay
Procathepsin L, sequence (P07711 whole entry): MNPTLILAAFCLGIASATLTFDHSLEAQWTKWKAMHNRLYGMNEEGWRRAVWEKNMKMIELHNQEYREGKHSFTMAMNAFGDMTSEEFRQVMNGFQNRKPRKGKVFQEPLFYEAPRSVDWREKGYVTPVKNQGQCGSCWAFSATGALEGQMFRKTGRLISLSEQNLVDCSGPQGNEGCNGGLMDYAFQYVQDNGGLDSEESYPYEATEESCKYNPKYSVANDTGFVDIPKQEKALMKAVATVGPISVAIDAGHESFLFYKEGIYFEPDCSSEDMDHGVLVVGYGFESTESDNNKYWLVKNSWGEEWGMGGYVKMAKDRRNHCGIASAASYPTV

Cathepsin K [1] = target: T2, Cathepsin K (Homo sapiens, UniProt P43235); experiment: Inhibition of recombinant human cathepsin K in a fluorescence assay
T2 sequence (P43235 whole entry): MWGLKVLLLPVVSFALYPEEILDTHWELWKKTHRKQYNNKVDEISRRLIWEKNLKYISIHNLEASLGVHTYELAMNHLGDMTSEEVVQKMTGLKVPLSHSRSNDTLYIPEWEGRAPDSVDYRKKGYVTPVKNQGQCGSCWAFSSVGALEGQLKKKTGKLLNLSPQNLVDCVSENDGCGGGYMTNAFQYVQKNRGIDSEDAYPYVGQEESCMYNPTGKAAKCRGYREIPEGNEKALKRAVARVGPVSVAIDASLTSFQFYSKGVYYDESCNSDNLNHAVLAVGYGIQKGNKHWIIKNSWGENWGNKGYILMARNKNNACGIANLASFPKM

[2] = Permeability across MDCK cells; type: ADME, cell-based, Canis lupus familiaris; conditions: dog
[3] = Solubility in fasted state-simulated intestinal fluid at pH 6.8; type: physicochemical
[4] = (§1) Terminal half life in iv dosed Han Wistar rat; type: ADME, organism-based; conditions: Han Wistar, in vivo, read-out: beta t1/2
[5] = Clearance in Han Wistar rat; type: ADME, organism-based; conditions: in vivo
[6] = (§2) Volume of distribution in Han Wistar rat; type: ADME, organism-based; conditions: Han Wistar, in vivo
[7] = Oral bioavailability in male Han Wistar rat; type: ADME, organism-based; conditions: in vivo
Rattus norvegicus [8] = experiment: as §1; type: ADME, organism-based; conditions: in vivo
Rattus norvegicus [9] = species on record: Rattus norvegicus; experiment: as §2; type: ADME, organism-based; conditions: in vivo
Cathepsin K [10] = target: T3, Cathepsin K (Rattus norvegicus, UniProt O35186); experiment: Inhibition of rat cathepsin K
T3 sequence (O35186 whole entry): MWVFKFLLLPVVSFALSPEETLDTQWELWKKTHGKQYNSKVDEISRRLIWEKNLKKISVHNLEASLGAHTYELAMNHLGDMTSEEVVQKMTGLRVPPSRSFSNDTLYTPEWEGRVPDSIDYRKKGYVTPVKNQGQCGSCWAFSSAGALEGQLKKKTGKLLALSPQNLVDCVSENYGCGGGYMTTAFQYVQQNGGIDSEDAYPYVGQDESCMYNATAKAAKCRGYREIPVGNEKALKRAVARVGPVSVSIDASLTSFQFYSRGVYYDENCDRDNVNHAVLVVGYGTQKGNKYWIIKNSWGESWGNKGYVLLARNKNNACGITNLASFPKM

CCCC[C@@H](C=O)NC(=O)O[C@H](Cc1ccccc1)C(C)C
IC50 (Cathepsin B): 27 nM | IC50 (Pro-cathepsin H): 18 nM | IC50 (Procathepsin L): 12 nM

CCCC[C@@H](C=O)NC(=O)O[C@@H](C)Cc1ccccc1
IC50 (Pro-cathepsin H): 40 nM

CCCC[C@@H](C=O)NC(=O)OC1(Cc2ccccc2)CCCC1
IC50 (Pro-cathepsin H): > 13000 nM

CCCC[C@@H](/C=N/NS(=O)(=O)N(C)C)NC(=O)OC(C)(C)C
IC50 (Cathepsin K [1]): 72 nM | Papp [2]: 77 ×10⁻⁶ cm/s | solubility [3]: 380 µg/mL (≈ 1130 µM) | half-life [4]: 39 min | clearance [5]: 25 mL/min/kg | Vd [6]: 0.39 L/kg | bioavailability [7]: 26%

CCCC[C@@H](/C=N/NC(=O)N1CCOCC1)NC(=O)O[C@H](Cc1ccccc1)C(C)C
IC50 (Cathepsin K [1]): 0.33 nM | IC50 (Cathepsin B): 18 nM | IC50 (Pro-cathepsin H): 190 nM | IC50 (Procathepsin L): 12 nM

CCCC[C@@H](/C=N/N(C)C(=O)NCCc1ccccc1)NC(=O)OC(C)(C)C
IC50 (Cathepsin K [1]): 11000 nM

CCCC[C@@H](/C=N/NC(=O)N1CCc2ccccc2C1)NC(=O)OC(C)(C)C
IC50 (Cathepsin K [1]): 93 nM

CCCC[C@@H](/C=N/NC(=O)Nc1ccccc1)NC(=O)OC(C)(C)C
IC50 (Cathepsin K [1]): 400 nM

CCCC[C@@H](/C=N/NC(=O)N(CC)CC)NC(=O)OC(C)(C)C
IC50 (Cathepsin K [1]): 40 nM

CCCC[C@@H](/C=N/NC(=O)N1CCCC1)NC(=O)OC(C)(C)C
IC50 (Cathepsin K [1]): 36 nM | Papp [2]: 20 ×10⁻⁶ cm/s | solubility [3]: 71 µg/mL (≈ 217 µM) | beta t1/2 (Rattus norvegicus [8]): 18 min | Vdss (Rattus norvegicus [9]): 0.43 L/kg | bioavailability [7]: 0%

CCCC[C@@H](/C=N/NC(N)=O)NC(=O)OC(C)(C)C
IC50 (Cathepsin K [1]): 350 nM

CCCC[C@@H](/C=N/NC(=O)N1CCCc2ccccc21)NC(=O)OC(C)(C)C
IC50 (Cathepsin K [1]): 59 nM

CCCC[C@@H](/C=N/NC(=O)NC(=O)OC)NC(=O)OC(C)(C)C
IC50 (Cathepsin K [1]): 180 nM

CCCC[C@@H](/C=N/N[N+]1=CSCC1)NC(=O)OC(C)(C)C
IC50 (Cathepsin K [1]): 470 nM

CCCC[C@@H](/C=N/NC(=O)CC(C)C)NC(=O)OC(C)(C)C
IC50 (Cathepsin K [1]): 200 nM

CCCC[C@@H](/C=N/N=C(\S)NC(C)C)NC(=O)OC(C)(C)C
IC50 (Cathepsin K [1]): 170 nM

CCCC[C@@H](/C=N/OC(=O)N1CCOCC1)NC(=O)OC(C)(C)C
IC50 (Cathepsin K [1]): 1100 nM

CCCC[C@@H](/C=N/NC(=O)NCc1ccccc1)NC(=O)OC(C)(C)C
IC50 (Cathepsin K [1]): 410 nM

CCCC[C@@H](/C=N/NC(=O)N1CCOCC1)NC(=O)O[C@@H](C)Cc1ccccc1
IC50 (Cathepsin K [1]): 0.94 nM | IC50 (Cathepsin B): 270 nM | IC50 (Pro-cathepsin H): 230 nM | IC50 (Procathepsin L): 540 nM | Papp [2]: 14 ×10⁻⁶ cm/s | solubility [3]: 60 µg/mL (≈ 148 µM) | beta t1/2 (Rattus norvegicus [8]): 9 min | Vdss (Rattus norvegicus [9]): 0.22 L/kg | bioavailability [7]: 0% | IC50 (Cathepsin K [10]): 130 nM

CC(C)C[C@@H]([13CH]=O)NC(=O)OC(C)(C)C
IC50 (Cathepsin K [1]): 31 nM

CCCC[C@@H](/C=N/NC(=O)SC(C)C)NC(=O)OC(C)(C)C
IC50 (Cathepsin K [1]): 830 nM

CCCC[C@@H](/C=N/NC(=O)NCCC(=O)OCC)NC(=O)OC(C)(C)C
IC50 (Cathepsin K [1]): 470 nM

CCCC[C@@H](/C=N/NC(=O)c1ccccc1)NC(=O)OC(C)(C)C
IC50 (Cathepsin K [1]): 220 nM

CCCC[C@@H](/C=N/NC(=O)N(C)CCc1ccccc1)NC(=O)OC(C)(C)C
IC50 (Cathepsin K [1]): 45 nM

CCCC[C@@H](/C=N/NC(=O)NCC(=O)OCC)NC(=O)OC(C)(C)C
IC50 (Cathepsin K [1]): 520 nM

CCCC[C@@H](/C=N/NC(=O)N1CCOCC1)NC(=O)OC(C)(C)C
IC50 (Cathepsin K [1]): 35 nM | IC50 (Cathepsin B): 32000 nM | IC50 (Pro-cathepsin H): > 13000 nM | IC50 (Procathepsin L): 11000 nM | Papp [2]: 6.2 ×10⁻⁶ cm/s | solubility [3]: 120 µg/mL (≈ 350 µM) | half-life [4]: 22 min | clearance [5]: 43 mL/min/kg | Vd [6]: 0.57 L/kg | bioavailability [7]: 3.9%

CCCC[C@@H](/C=N/NC(=O)NC(C)(C)C)NC(=O)OC(C)(C)C
IC50 (Cathepsin K [1]): 160 nM

CCCC[C@@H](/C=N/NC(=O)OC(C)C)NC(=O)OC(C)(C)C
IC50 (Cathepsin K [1]): 130 nM

CCCC[C@@H](/C=N/NC(=O)NC(C)C)NC(=O)OC(C)(C)C
IC50 (Cathepsin K [1]): 170 nM

CCCC[C@@H](/C=N/NC(=O)NC)NC(=O)OC(C)(C)C
IC50 (Cathepsin K [1]): 280 nM

CCCC[C@@H](/C=N/N=C(N)N)NC(=O)OC(C)(C)C
IC50 (Cathepsin K [1]): 33000 nM

CCCC[C@@H](/C=N/NC(=O)N1CCc2ccccc21)NC(=O)OC(C)(C)C
IC50 (Cathepsin K [1]): 48 nM | IC50 (Cathepsin B): 35000 nM | IC50 (Pro-cathepsin H): > 13000 nM | IC50 (Procathepsin L): 14000 nM | Papp [2]: 15 ×10⁻⁶ cm/s | solubility [3]: 33 µg/mL (≈ 88.1 µM) | beta t1/2 (Rattus norvegicus [8]): 10 min | Vdss (Rattus norvegicus [9]): 0.54 L/kg | bioavailability [7]: 0%

CCCC[C@@H](/C=N/NC(=O)NCC)NC(=O)OC(C)(C)C
IC50 (Cathepsin K [1]): 490 nM

CC(C)C[C@@H](/[13CH]=N/NC(=O)N1CCOCC1)NC(=O)OC(C)(C)C
IC50 (Cathepsin K [1]): 110 nM

CCCC[C@@H](/C=N/NC(=O)N1CCCCC1)NC(=O)OC(C)(C)C
IC50 (Cathepsin K [1]): 58 nM

CCCC[C@@H](/C=N/NC(=O)NCCc1ccccc1)NC(=O)OC(C)(C)C
IC50 (Cathepsin K [1]): 260 nM

CCCC[C@@H](/C=N/N(C)C(=O)N(C)CCc1ccccc1)NC(=O)OC(C)(C)C
IC50 (Cathepsin K [1]): 520 nM

CCCC[C@@H](/C=N/NC(=O)N(C)C)NC(=O)OC(C)(C)C
IC50 (Cathepsin K [1]): 72 nM

CCCC[C@@H](/C=N/NC(=O)N1CCc2ccccc21)NC(=O)OC1(Cc2ccccc2)CCCC1
IC50 (Cathepsin K [1]): 1.1 nM | IC50 (Cathepsin B): 1800 nM | IC50 (Pro-cathepsin H): > 13000 nM | IC50 (Procathepsin L): 3400 nM

CCCC[C@@H](/C=N/NC(=O)C(F)(F)F)NC(=O)OC(C)(C)C
IC50 (Cathepsin K [1]): 24 nM

CCCC[C@@H](C=O)NC(=O)OC(C)(C)C
IC50 (Cathepsin B): 32000 nM | IC50 (Pro-cathepsin H): > 13000 nM | IC50 (Procathepsin L): 8900 nM
